One assay deals with human HTRA3 (Homo sapiens (Human), UniProt P83110). Put plainly: Chromogenic enzyme activity assay, HTRA3.
Another assay has as its target bovine pancreas trypsin (Bos taurus (Bovine), UniProt P00760). The assay is described as follows: Chromogenic enzyme activity assay, trypsin. It is filed as biochemical. The conditions noted are these: Table 2.
The next assay addresses human HTRA1 (Homo sapiens (Human), UniProt Q92743). The assay is described as follows: Chromogenic enzyme activity assay, HTRA1.
The target in assay [1] is human pancreas chymotrypsin. The assay is described as follows: Chromogenic enzyme activity assay, chymotrypsin. It counts as biochemical. The conditions noted are these: for Ki: human pancreas chymotrypsin, Table 2.
Assay [2] concerns the target human neutrophil elastase (Homo sapiens (Human), UniProt P08246). The assay is described as follows: Chromogenic enzyme activity assay, elastase. It is filed as biochemical. The conditions noted are these: for Ki: human neutrophil elastase.
A further assay concerns the target human HTRA2 (Homo sapiens (Human), UniProt O43464). The assay is described as follows: Chromogenic enzyme activity assay, HTRA2. The conditions noted are these: for fold gain in HTRA2 potency relative to Ahp1: compared with Ahp1.
Assay [3] concerns human bone marrow-derived stromal cells (hBMSCs). The assay is described as follows: HTRA1-mediated hBMSC osteogenesis, matrix mineralization by Alizarin Red S staining. It counts as cell-based. The conditions noted are these: 10 μM compound, with HTRA1 or inactive HTRA1 S328A. On the procedure: Human BMSCs (hBMSCs) (Lonza Verviers, Belgium) were maintained in normal growth medium consisting of Dulbecco's modified eagle medium (DMEM-low glucose, with Glutamax) (Thermo Fisher Scientific, Reinach, Switzerland), supplemented with 10% fetal bovine serum (FBS) (Bioswisstec, Schaffhausen, Switzerland) and penicillin (50 units mL^−1) and streptomycin (50 μg mL^−1), and used between passage 2 and 6. The osteogenic differentiation of hBMSCs was performed as previously described in the art. Briefly, hBMSCs were seeded at 10′000 cells cm-2 in 24-well cell culture plates, and incubated for up to 14 days in osteogenic medium consisting of normal growth medium supplemented with ascorbic acid (50 μM), β-glycerophosphate (10 mM) and dexamethasone (100 nM) (all from Sigma-Aldrich, Buchs, Switzerland). Cells were replenished with fresh medium every 3-4 days. […] Mineralized matrix deposition by hBMSC-derived bone forming cells was visualized using Alizarin Red S, and the amount of staining quantified by determining the absorption at 570 nm using a multiplate reader (Infinite M200, Tecan) following extraction with 10% cetylpyridinium chloride (Sigma-Aldrich).

We go through 14 compounds from US11149067B2, “Tailored cyclodepsipeptides as potent non-covalent serine protease inhibitors” (UNIVERSITÄT DUISBURG-ESSEN, priority 2017, dated 2021).

Sequence of human HTRA2 (O43464 134-458): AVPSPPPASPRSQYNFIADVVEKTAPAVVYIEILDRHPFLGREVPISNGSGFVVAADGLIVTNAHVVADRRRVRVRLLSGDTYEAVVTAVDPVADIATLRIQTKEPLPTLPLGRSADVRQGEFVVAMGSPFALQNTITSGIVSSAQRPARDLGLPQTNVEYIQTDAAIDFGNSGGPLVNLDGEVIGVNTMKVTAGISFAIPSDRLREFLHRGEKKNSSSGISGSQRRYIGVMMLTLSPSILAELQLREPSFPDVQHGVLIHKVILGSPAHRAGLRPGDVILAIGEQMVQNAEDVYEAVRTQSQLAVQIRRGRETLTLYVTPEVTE
Sequence of human HTRA1 (Q92743 158-480): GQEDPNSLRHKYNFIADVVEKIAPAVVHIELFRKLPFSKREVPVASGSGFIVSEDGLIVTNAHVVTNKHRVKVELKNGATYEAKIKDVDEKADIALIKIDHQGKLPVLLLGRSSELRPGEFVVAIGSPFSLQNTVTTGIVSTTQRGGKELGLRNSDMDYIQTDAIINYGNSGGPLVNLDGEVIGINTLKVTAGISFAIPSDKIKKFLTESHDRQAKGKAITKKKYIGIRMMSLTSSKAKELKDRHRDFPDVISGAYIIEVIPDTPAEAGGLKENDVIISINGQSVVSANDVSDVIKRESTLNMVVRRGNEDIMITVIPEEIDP
Sequence of human HTRA3 (P83110 111-436): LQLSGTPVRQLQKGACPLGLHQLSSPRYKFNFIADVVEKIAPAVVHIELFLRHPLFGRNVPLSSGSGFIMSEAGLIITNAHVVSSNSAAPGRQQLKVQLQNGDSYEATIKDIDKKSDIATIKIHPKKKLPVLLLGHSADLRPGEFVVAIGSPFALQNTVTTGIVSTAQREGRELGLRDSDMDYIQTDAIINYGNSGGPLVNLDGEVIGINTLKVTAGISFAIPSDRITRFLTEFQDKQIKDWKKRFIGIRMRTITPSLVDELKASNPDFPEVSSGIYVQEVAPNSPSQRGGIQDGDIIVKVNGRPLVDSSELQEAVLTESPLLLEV
Sequence of human neutrophil elastase (P08246 30-267): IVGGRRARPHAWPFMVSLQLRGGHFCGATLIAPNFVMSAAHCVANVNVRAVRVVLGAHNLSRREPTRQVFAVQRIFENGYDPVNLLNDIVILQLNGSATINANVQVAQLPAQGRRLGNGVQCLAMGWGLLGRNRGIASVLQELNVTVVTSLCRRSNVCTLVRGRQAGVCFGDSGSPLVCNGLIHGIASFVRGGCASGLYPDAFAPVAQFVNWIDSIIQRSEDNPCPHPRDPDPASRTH
Sequence of bovine pancreas trypsin (P00760 24-246): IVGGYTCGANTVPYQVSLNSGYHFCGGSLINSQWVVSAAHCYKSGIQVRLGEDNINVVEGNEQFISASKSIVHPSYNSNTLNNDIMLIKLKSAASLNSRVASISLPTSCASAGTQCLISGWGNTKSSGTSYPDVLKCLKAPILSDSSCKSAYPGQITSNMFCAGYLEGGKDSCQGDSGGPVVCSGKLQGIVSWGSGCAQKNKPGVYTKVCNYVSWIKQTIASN

Turning to `CC(C)C[C@H]1C(=O)N(C)[C@@H](Cc2ccccc2)C(=O)N[C@@H](C(C)C)C(=O)O[C@H](C)[C@H](NC(=O)[C@H](C)NC(=O)[C@H](C)NC(=O)OCc2ccccc2)C(=O)N[C@@H](C(C)C)C(=O)N[C@H]2CC[C@@H](O)N1C2=O` [Ahp1], the “HTRA3 inhibition, in words” value at human HTRA3 is reported as “inhibited”. Further, the Ki (on bovine pancreas trypsin; in assay [1]) was > 50 µM throughout. Moreover, at human HTRA1, the “HTRA1 inhibition, in words” value is “inhibited”.

In the case of `CC(C)C[C@H]1C(=O)N(C)[C@@H](Cc2ccccc2)C(=O)N[C@@H](C(C)C)C(=O)O[C@H](C)[C@H](NC(=O)[C@H](C)NC(=O)[C@H](C)NC(=O)OCc2ccccc2)C(=O)N[C@@H](Cc2ccccc2)C(=O)N[C@H]2CC[C@@H](O)N1C2=O` [Ahp2], in assay [2], the “elastase inhibition, in words” value is reported as “significantly reduced”. The “HTRA3 inhibition, in words” value at human HTRA3 is listed as “significantly reduced”. The “HTRA1 inhibition, in words” value on human HTRA1 is reported as “significantly reduced”. In assay [1], the “chymotrypsin inhibition, in words” value is reported as “enhanced chymotrypsin inhibition” and the inhibition constant (Ki) was determined as 0.37 ± 0.08 µM. For the same compound, the “HTRA2 inhibition, in words” value on human HTRA2 is given as “significantly reduced”.

`CC(C)C[C@H]1C(=O)N(C)[C@@H](Cc2ccccc2)C(=O)N[C@@H](C(C)C)C(=O)O[C@H](c2ccccc2)[C@H](NC(=O)[C@H](C)NC(=O)[C@H](C)NC(=O)OCc2ccccc2)C(=O)N[C@@H](C(C)C)C(=O)N[C@H]2CC[C@@H](O)N1C2=O` [Ahp3]: the Ki in assay [2] (Table 2) was 0.21 ± 0.06 µM; on human HTRA3 it was 3.1 ± 0.6 µM; on bovine pancreas trypsin, > 50 µM; at human HTRA1 it was > 50 µM; in assay [1], > 50 µM; on human HTRA2, 0.27 ± 0.07 µM. On human HTRA3, the “HTRA3 inhibition, in words” value is listed as “inhibited”.

Consider `CC(C)C[C@H]1C(=O)N(C)[C@@H](Cc2ccccc2)C(=O)N[C@@H](C(C)C)C(=O)O[C@H](C)[C@H](NC(=O)[C@H](Cc2ccccc2)NC(=O)[C@H](C)NC(=O)OCc2ccccc2)C(=O)N[C@@H](C(C)C)C(=O)N[C@H]2CC[C@@H](O)N1C2=O` [Ahp4], for which the Ki in assay [2] (Table 2) is 0.33 ± 0.06 µM; at human HTRA3, > 50 µM; on bovine pancreas trypsin it was > 50 µM; at human HTRA1, > 50 µM; in assay [1], > 50 µM; on human HTRA2, 0.49 ± 0.11 µM. Besides, the “HTRA2 inhibition, in words” value at human HTRA2 is listed as “sub-μM inhibition potencies”. Further, the “fold gain in HTRA2 potency relative to Ahp1” value at human HTRA2 is listed as “more than ten-fold”.

Turning to `CC(C)[C@@H]1NC(=O)[C@@H](NC(=O)[C@H](C)NC(=O)[C@H](C)NC(=O)OCc2ccccc2)[C@@H](C)OC(=O)[C@H](C(C)C)NC(=O)[C@H](Cc2ccccc2)N(C)C(=O)[C@H](Cc2ccccc2)N2C(=O)[C@H](CC[C@H]2O)NC1=O` [Ahp6], the Ki in assay [2] (Table 2) is 8 ± 1.8 µM; at human HTRA3, > 50 µM; on bovine pancreas trypsin, > 50 µM; on human HTRA1 it was 10.3 ± 3 µM; in assay [1], > 50 µM; on human HTRA2, 2.1 ± 0.3 µM. The “HTRA1 inhibition, in words” value on human HTRA1 was “inhibited”.

Turning to `CC(C)C[C@H]1C(=O)N(C)[C@@H](C)C(=O)N[C@@H](C(C)C)C(=O)O[C@H](C)[C@H](NC(=O)[C@H](C)NC(=O)[C@H](C)NC(=O)OCc2ccccc2)C(=O)N[C@@H](C(C)C)C(=O)N[C@H]2CC[C@@H](O)N1C2=O` [Ahp7], the “elastase inhibition, in words” value in assay [2] is listed as “low μM or even sub-μM”. The Ki (at bovine pancreas trypsin; in assay [1]) was > 50 µM each time.

For `CC(C)C[C@H]1C(=O)N(C)[C@@H](Cc2ccccc2)C(=O)N[C@@H](Cc2ccccc2)C(=O)O[C@H](C)[C@H](NC(=O)[C@H](C)NC(=O)[C@H](C)NC(=O)OCc2ccccc2)C(=O)N[C@@H](C(C)C)C(=O)N[C@H]2CC[C@@H](O)N1C2=O` [Ahp8], the Ki was 0.32 ± 0.05 µM in assay [2] (Table 2); 9.5 ± 0.9 µM on human HTRA3; > 50 µM on bovine pancreas trypsin; > 50 µM on human HTRA1; > 50 µM in assay [1]; 2.3 ± 0.2 µM at human HTRA2. Besides, the “HTRA3 inhibition, in words” value on human HTRA3 was “inhibited”.

Take `CC(C)C[C@@H]1NC(=O)[C@@H](NC(=O)[C@H](C)NC(=O)[C@H](C)NC(=O)OCc2ccccc2)[C@@H](C)OC(=O)[C@H](C(C)C)NC(=O)[C@H](Cc2ccccc2)N(C)C(=O)[C@H](CC(C)C)N2C(=O)[C@H](CC[C@H]2O)NC1=O` [Ahp9]: the “HTRA2 inhibition, in words” value on human HTRA2 is on record as “slightly better HTRA2 inhibitory properties than Ahp1”.

For the compound `CC(C)C[C@H]1C(=O)N(C)[C@@H](Cc2ccccc2)C(=O)N[C@@H](C(C)C)C(=O)O[C@H](C(C)C)[C@H](NC(=O)[C@H](C)NC(=O)[C@H](C)NC(=O)OCc2ccccc2)C(=O)N[C@@H](C(C)C)C(=O)N[C@H]2CC[C@@H](O)N1C2=O` [Ahp10], the “inhibition of HTRA1-mediated hBMSC osteogenesis (matrix mineralization)” value in assay [3] is “significantly inhibited”. Also, the “elastase inhibition, in words” value in assay [2] is listed as “lowered the Ki”. For the same compound, the inhibition constant Ki (at bovine pancreas trypsin; in assay [1]) was > 50 µM throughout. Moreover, at human HTRA1, the “HTRA1 inhibition, in words” value is “lowered the Ki”. The “HTRA2 inhibition, in words” value at human HTRA2 is “sub-μM Ki”. Further, the “fold gain in HTRA2 potency relative to Ahp1” value at human HTRA2 was found to be 15 fold.

In the case of `CC(C)C[C@H]1C(=O)N(C)[C@@H](Cc2ccccc2)C(=O)N[C@@H](C(C)C)C(=O)O[C@H](C(C)C)[C@H](NC(=O)[C@H](C)NC(=O)CCc2ccccc2)C(=O)N[C@@H](C(C)C)C(=O)N[C@H]2CC[C@@H](O)N1C2=O` [Ahp11], the “HTRA3 inhibition, in words” value on human HTRA3 is reported as “moderate inhibition”. Also, the “HTRA2 inhibition, in words” value on human HTRA2 is “moderate inhibition”.

As to `CC(C)C[C@H]1C(=O)N(C)[C@@H](Cc2ccccc2)C(=O)N[C@@H](C(C)C)C(=O)O[C@H](C)[C@H](NC(=O)[C@H](C)NC(=O)[C@H](C)NC(=O)OCc2ccccc2)C(=O)N[C@@H](C)C(=O)N[C@H]2CC[C@@H](O)N1C2=O` [Ahp13], on human HTRA3, the “HTRA3 inhibition, in words” value is “enhanced inhibitory activity”. On human HTRA1, the “HTRA1 inhibition, in words” value is “enhanced inhibitory activity”. Also, the “HTRA2 inhibition, in words” value on human HTRA2 is given as “enhanced inhibitory activity”.

`CC[C@@H]1NC(=O)[C@@H](NC(=O)[C@H](C)NC(=O)[C@H](C)NC(=O)OCc2ccccc2)[C@@H](C)OC(=O)[C@H](C(C)C)NC(=O)[C@H](Cc2ccccc2)N(C)C(=O)[C@H](CC(C)C)N2C(=O)[C@H](CC[C@H]2O)NC1=O` [Ahp14]: the “HTRA3 inhibition, in words” value on human HTRA3 is listed as “enhanced inhibitory activity”. Besides, the “HTRA1 inhibition, in words” value at human HTRA1 is listed as “enhanced inhibitory activity”. Also, the “HTRA2 inhibition, in words” value on human HTRA2 is “enhanced inhibitory activity”.

For the compound `CC(C)C[C@H]1C(=O)N(C)[C@@H](Cc2ccccc2)C(=O)N[C@@H](C(C)C)C(=O)O[C@H](C)[C@H](NC(=O)[C@H](C)NC(=O)[C@H](C)NC(=O)OCc2ccccc2)C(=O)N[C@@H](C2CC2)C(=O)N[C@H]2CC[C@@H](O)N1C2=O` [Ahp19], in assay [2] (Table 3), the Ki was found to be 1.93 µM. Moreover, on human HTRA3, the “HTRA3 inhibition, in words” value is reported as “enhanced inhibitory activity” and affinity was put at a Ki of 0.74 µM. For the same compound, at human HTRA1, the “HTRA1 inhibition, in words” value was “enhanced inhibitory activity” and the Ki is 1.24 µM. At human HTRA2, the “HTRA2 inhibition, in words” value is given as “enhanced inhibitory activity” and the Ki was 1.11 µM.

Consider `CC(C)C[C@H]1C(=O)N(C)[C@@H](Cc2ccccc2)C(=O)N[C@@H](C(C)C)C(=O)O[C@H](C)[C@H](NC(=O)[C@H](C)NC(=O)[C@H](C)NC(=O)OCc2ccccc2)C(=O)N[C@@H](C(C)(C)C)C(=O)N[C@H]2CC[C@@H](O)N1C2=O` [Ahp20], for which the Ki in assay [2] (Table 3) is 4.32 µM; at human HTRA3, 8.3 µM; on human HTRA1 it was > 50 µM; at human HTRA2, > 50 µM.
